The results in this text go back to patent US20050090498A1, “3-Quinolin-2(1h)-ylideneindolin-2-one derivative” (priority 2001, published 2005).

For test [1], the system named is Human umbilical vein endothelial cells (HUVEC), VEGF-stimulated. Put plainly: Test on the inhibition of VEGF-stimulated HUVEC growth ([3H]thymidine incorporation). Type of test: cell-based. The settings on record: human recombinant VEGF 10 ng/ml. (Uptake of a labelled nucleoside into DNA is a usual measure of proliferation.)
Test [2] deals with human colon tumor COLO 205. Put plainly: In vivo anti-tumor test using human colon tumor bearing nude mice. Set-up: species or system female Balb/c nude mouse. To be noted: COLO 205 bearing nude mice, oral once a day for 14 days, 10 or 30 mg/kg/day. The method, then: Test method: A total of 4×10^6 cells of a human colon tumor COLO 205 were administered under the dorsal side skin of each female Balb/c nude mouse. When the tumor volume reached 50 to 100 mm^3, each of the test compounds was orally administered once a day for 14 days. In addition, 0.5% methyl cellulose aqueous solution was orally administered to the control group. Calipers were used for the measurement of tumor diameter, and it was measured on the next day of the final administration. In this case, the tumor volume was calculated using the following calculation formula. Tumor volume=(width^2×length)/2

For test [3], the system named is Human umbilical vein endothelial cells (HUVEC), VEGF-stimulated. As to the kind of experiment: Test on the inhibition of VEGF-stimulated HUVEC growth ([3H]thymidine incorporation). It is filed as cell-based. To be noted: human recombinant VEGF 10 ng/ml. The method, then: Test method: (Cell culture) Human umbilical vein endothelial cells (HUVEC) were cultured using EGM-2 complete medium (Clonetics) which had been supplemented with additives (2% FBS, 0.4% FGF (fibroblast growth factor), 0.1% VEGF, 0.1% IGF-I (insulin like growth factor-I), 0.1% EGF (epidermal growth factor), 0.1% ascorbic acid, 0.1% GA-1000, 0.1% heparin and 0.04% hydrocortisone).
(Evaluation of compounds) HUVEC (10,000 cells/well) were inoculated into EGM-2 complete medium in a gelatin-coated 96 well plate (mfd. by IWAKI) and cultured overnight. After washing with a physiological phosphate buffer, the medium was exchanged with a low serum medium (Medium 199/0.1% FBS) and the culturing was continued for 24 hours. Each of the compounds to be evaluated was prepared as a 10 mM DMSO solution and diluted with the low serum medium. This was added to each well to a final concentration of from 0.001 to 10 μM. After 2 hours of the compound treatment, human recombinant VEGF (R & D Systems) was added to a final concentration of 10 ng/ml. After 18 hours, [^3H]thymidine (Amersham Pharmacia) was added in 5 μCi/well portions. After 4 hours, the reaction was terminated by adding 0.2% SDS in 50 μl/well portions, and the product was recovered on GF/C Unifilter (Packard). After adding 25 μl of Microscinti 20 (Packard), the radioactivity incorporated into the DNA trapped on the filter was measured using TopCount (Packard). The IC50 of the inhibitory activity of each compound was calculated as the 50% inhibition concentration (IC50 value) of each compound to be tested, by defining the incorporated amount of [^3H]thymidine at the time of VEGF addition as 100%, and its incorporated amount at the time of no addition of VEGF as 0%.
This is another data set of the same source.

Test [4] concerns VEGF-dependent in vitro angiogenesis (endotherial vessel forming amount). As to the kind of experiment: In vitro angiogenesis inhibition test (KURABO angiogenesis kit, CD31 staining). It is filed as cell-based. The settings on record: Homo sapiens, 312 h; 10 ng/ml VEGF, 13 days culture, anti-VEGF antibody as 0% control. The method, then: Test method: An angiogenesis assay kit (mfd. by KURABO was used. A medium prepared by adding 10 ng/ml of VGEF (R & D Systems) to the special medium attached to the kit used as the culture medium. Each test drug was prepared as a 10 mM DMSO solution and added to a final concentration of from 0.003 to 1 μM by diluting with the special medium. Amount of angiogenesis under a condition of not adding the test drug was used as the positive control, and a condition under which 25 μg/ml of an anti-VEGF antibody (Sigma) was added was used as the negative control. On the 4th, 7th and 10th days after commencement of the culturing, the test drug was prepared as described in the above and exchanged with the medium of each well. On the 13th day, fixation of the cell layer was carried out in accordance with the method attached to the kit. That is, fixation of cell layer was carried out by adding ice-cooled 70% ethanol after washing with a physiological phosphate buffer and then allowing to stand at room temperature for 30 minutes. […]
A endotherial vessel staining kit CD31 for staining (mfd. by KURABO) was used for the staining of the thus formed hollow organ. […] By importing the file preserved in the imaging software, the number of pixel obtained by threshold and measure commands was recorded. […]

On to `CN1CCN(C(=O)c2ccc3c(c2)C=CC(=C2C(=O)Nc4ccccc42)N3)CC1` [Example 148, 3-[6-(4-methylpiperazine-1-carbonyl)quinolin-2(1H)-ylidene]indolin-2-one], for which the IC50 in test [1] amounted to 74 nM. Besides, the “tumor growth inhibition (tumor volume) versus control” value in test [2] is “inhibit the tumor growth with a significance for the control”.
Regarding `CCN(CC)CCCc1ccc2c(c1)C=CC(=C1C(=O)Nc3ccccc31)N2` [Example 99], the 50% inhibitory concentration (IC50) in test [3] turned out to be 130 nM. The “tumor growth inhibition (tumor volume) versus control” value in test [2] is on record as “inhibit the tumor growth with a significance for the control”.
In the case of `CCN(CC)CCOc1ccc2c(c1)C=CC(=C1C(=O)Nc3ccccc31)N2.O=C(O)CCC(=O)O` [Example 44], the IC50 in test [3] is 280 nM. Further, the “tumor growth inhibition (tumor volume) versus control” value in test [2] was “inhibit the tumor growth with a significance for the control”.
As for `CCN1CCN(Cc2ccc3c(c2)C=CC(=C2C(=O)Nc4ccccc42)N3)CC1` [Example 134, 3-{6-[(4-ethylpiperazin-1-yl)methyl]quinolin-2(1H)-ylidene}indolin-2-one], the “tumor growth inhibition (tumor volume) versus control” value in test [2] was “inhibit the tumor growth with a significance for the control”.
Consider `O=C1Nc2ccccc2C1=C1C=Cc2cc(CNCC3CCCO3)ccc2N1` (stereo not shown) [Example 111], for which the IC50 in test [3] was determined as 300 nM. Moreover, the “tumor growth inhibition (tumor volume) versus control” value in test [2] is “inhibit the tumor growth with a significance for the control”.
As to `O=C1Nc2ccccc2C1=C1C=Cc2cc(CNC3CCOCC3)ccc2N1` [Example 115], in test [2], the “tumor growth inhibition (tumor volume) versus control” value is “inhibit the tumor growth with a significance for the control”.
Regarding `Cl.O=C1Nc2ccccc2C1=C1C=Cc2cc(CNCC3CCOCC3)ccc2N1` [Example 113], in test [2], the “tumor growth inhibition (tumor volume) versus control” value was “inhibit the tumor growth with a significance for the control”.
In the case of `CN1CCN(CCOc2ccc3c(c2)C=CC(=C2C(=O)Nc4ccccc42)N3)CC1` [Example 41], in test [3], the IC50 was found to be 120 nM. Further, the “tumor growth inhibition (tumor volume) versus control” value in test [2] was “inhibit the tumor growth with a significance for the control”.
As to `O=C1Nc2ccccc2C1=C1C=Cc2ccccc2N1` [Compound A, 3-quinolin-2(1H)-ylideneindolin-2-one], the IC50 in test [1] turned out to be 140 nM; in test [4], 69 nM.
Take `CN(C)[C@H]1CCCC1Nc1ncc2c(n1)/C(=C1\C=Cc3ccccc3N1)C(=O)N2` (stereo partly shown) [Example 354]: the 50% inhibitory concentration (IC50) in test [1] was 140 nM.
In the case of `O=C1Nc2ccccc2C1=C1C=Cc2cc(OCCN3CCOCC3)ccc2N1` [Example 4, 3-[6-(2-morpholin-4-ylethoxy)quinolin-2(1H)-ylidene]indolin-2-one], in test [1], the IC50 worked out at 190 nM. For the same compound, in test [2], the “tumor growth inhibition (tumor volume) versus control” value is “inhibit the tumor growth with a significance for the control”.
With `O=C1Nc2ccccc2C1=C1C=Cc2cc(CN3CCOCC3)ccc2N1` [Example 54], the concentration for half-maximal inhibition (IC50) in test [3] turned out to be 29 nM. The “tumor growth inhibition (tumor volume) versus control” value in test [2] was “inhibit the tumor growth with a significance for the control”.
For `O=C(CN1CCOCC1)Nc1ccc2c(c1)C=CC(=C1C(=O)Nc3ccccc31)N2` [Example 9, 2-morpholin-4-yl-N-[2-(2-oxoindolin-3-ylidene)-1,2-dihydroquinolin-6-yl]acetamide], the concentration for half-maximal inhibition (IC50) in test [1] was 200 nM.
Take `O=C1Nc2ccc(F)cc2C1=C1C=Cc2cc(OCCN3CCOCC3)ccc2N1` [Example 311]: the IC50 in test [3] came to 240 nM. Further, the “tumor growth inhibition (tumor volume) versus control” value in test [2] is “inhibit the tumor growth with a significance for the control”.
Turning to `CN1CCN(Cc2ccc3c(c2)C=CC(=C2C(=O)Nc4ccccc42)N3)CC1` [Example 132, 3-{6-[(4-methylpiperazin-1-yl)methyl]quinolin-2(1H)-ylidene}indolin-2-one], the “tumor growth inhibition (tumor volume) versus control” value in test [2] was “inhibit the tumor growth with a significance for the control”.
Turning to `O=C1Nc2cc(F)ccc2C1=C1C=Cc2cc(OCCN3CCOCC3)ccc2N1` [Example 310], in test [3], the IC50 is 310 nM. Moreover, the “tumor growth inhibition (tumor volume) versus control” value in test [2] was “inhibit the tumor growth with a significance for the control”.
As to `O=C1Nc2ccccc2C1=C1C=Cc2cc(OCC(=O)N3CCOCC3)ccc2N1` [Example 8, 3-[6-(2-morpholin-4-yl-2-oxoethoxy)quinolin-2(1H)-ylidene]indolin-2-one], in test [1], the half-inhibitory concentration (IC50) stood at 170 nM.
`CN1CCC(COc2ccc3c(c2)C=CC(=C2C(=O)Nc4ccccc42)N3)CC1` [Example 15, 3-{6-[(1-methylpiperidin-4-yl)methoxy]quinolin-2(1H)-ylidene}indolin-2-one]: in test [1], the IC50 amounted to 320 nM.

The IC50 is the concentration that inhibits the measured activity by half.
